Data as given in patent US11427567B2, “Imidazolyl pyrimidinylamine compounds as CDK2 inhibitors” (Incyte Corporation, priority 2019, dated 2022).

Molecular target: CDK2/Cyclin E1 (Homo sapiens (Human), UniProt P24941)
Assay: CDK2/Cyclin E1 HTRF enzyme activity assay (Example A)
Assay type: biochemical
Details: 1 mM ATP
Description: Assays were conducted in white 384-well polystyrene plates in a final reaction volume of 8 μL. […] HTRF signals were read after 1 hour at room temperature on a PHERAstar FS plate reader (BMG Labtech). Data was analyzed with IDBS XLFit and GraphPad Prism 5.0 software using a three or four parameter dose response curve to determine IC50 for each compound.

Row | SMILES | IC50 [nM]
1 | Cn1ncnc1-c1ccc(-n2cnc(-c3nc(NC4CCN(S(C)(=O)=O)CC4)ncc3C(F)(F)F)c2)c(Cl)c1 [Example 121, 4-(1-(2-Chloro-4-(1-methyl-1H-1,2,4-triazol-5-yl)phenyl)-1H-imidazol-4-yl)-N-(1-(methylsulfonyl)-piperidin-4-yl)-5-(trifluoromethyl)-pyrimidin-2-amine] | ≤ 50
2 | C[C@]1(O)CCN(Cc2ccc(-n3cnc(-c4nc(NC5CCN(S(C)(=O)=O)CC5)ncc4C(F)(F)F)c3)c(Cl)c2)C1 [Example 204, (S)-1-(3-Chloro-4-(4-(2-((1-(methyl-sulfonyl)piperidin-4-yl)amino)-5-(trifluoromethyl)-pyrimidin-4-yl)-1H-imidazol-1-yl)-benzyl)-3-methyl-pyrrolidin-3-ol] | ≤ 50
3 | CCc1ccc(-n2cnc(-c3nc(NC4CCN(S(C)(=O)=O)CC4)ncc3C(F)(F)F)c2)c(C#N)n1 [Example 41, 6-Ethyl-3-(4-(2-((1-(methylsulfonyl)piperidin-4-yl)amino)-5-(trifluoromethyl)pyrimidin-4-yl)-1H-imidazol-1-yl)picolinonitrile] | ≤ 50
4 | COCCNc1ccc(-n2cnc(-c3nc(NC4CCN(S(C)(=O)=O)CC4)ncc3C(F)(F)F)c2)c(Cl)c1 [Example 144, 4-(1-(2-Chloro-4-((2-methoxyethyl)-amino)phenyl)-1H-imidazol-4-yl)-N-(1-(methylsulfonyl)-piperidin-4-yl)-5-(trifluoromethyl)-pyrimidin-2-amine] | ≤ 50
5 | CS(=O)(=O)N1CCC(Nc2ncc(C(F)(F)F)c(-c3cn(-c4cccc5c4COC5=O)cn3)n2)CC1 [Example 233, 4-(4-(2-((1-(Methylsulfonyl)piperidin-4-yl)amino)-5-(trifluoromethyl)pyrimidin-4-yl)-1H-imidazol-1-yl)isobenzofuran-1(3H)-one] | ≤ 50
6 | CC1(O)CN(Cc2cccc(-n3cnc(-c4nc(NC5CCN(S(C)(=O)=O)CC5)ncc4C(F)(F)F)c3)c2C(F)(F)F)C1 [Example 379, 3-Methyl-1-(3-(4-(2-((1-(methylsulfonyl)piperidin-4-yl)amino)-5-(trifluoromethyl)pyrimi-din-4-yl)-1H-imidazol-1-yl)-2-(trifluoromethyl)benzyl) azetidin-3-ol] | ≤ 50
7 | Cc1ccc(-n2cnc(-c3nc(N[C@H]4CCN(S(=O)(=O)c5cn(C)cn5)C[C@H]4C)ncc3C(F)(F)F)c2)c(C#N)n1 [Example 152, 6-Methyl-3-(4-(2-(((3R,4S)-3-methyl-1-((1-methyl-1H-imidazol-4-yl)sulfonyl)piperidin-4-yl)amino)-5-(trifluoromethyl)pyrimidin-4-yl)-1H-imidazol-1-yl)picolinonitrile] | ≤ 50
8 | Cc1nc(-c2nc(N[C@H]3CCN(S(C)(=O)=O)C[C@H]3F)ncc2C(F)(F)F)cn1-c1cccc(C#N)c1Cl [Example 384, 2-Chloro-3-(4-(2-(((3R,4S)-3-fluoro-1-(methylsulfonyl)piperidin-4-yl)amino)-5-(trifluoromethyl)pyrimi-din-4-yl)-2-methyl-1H-imidazol-1-yl)benzonitrile] | ≤ 50
9 | N#Cc1cccc(-n2cnc(-c3nc(NC4CCN(S(=O)(=O)C5CC5)CC4)ncc3C(F)(F)F)c2)c1C(F)(F)F [Example 92, 3-(4-(2-((1-(Cyclopropylsulfonyl)piperidin-4-yl)amino)-5-(trifluoromethyl)pyrimidin-4-yl)-1H-imidazol-1-yl)-2-(trifluoromethyl) benzonitrile] | ≤ 50
10 | C[C@@H]1CN(S(C)(=O)=O)CC[C@@H]1Nc1ncc(C(F)(F)F)c(-c2cn(-c3ccc(C4CCCCN4)cc3Cl)cn2)n1 (single isomer, unassigned) [Example 277] | ≤ 50
11 | C[C@@]1(O)CCN(Cc2cccc(-n3cnc(-c4nc(NC5CCN(S(C)(=O)=O)CC5)ncc4C(F)(F)F)c3)c2Cl)C1 [Example 363, (R)-1-(2-Chloro-3-(4-(2-((1-(methylsulfonyl)piperidin-4-yl)amino)-5-(trifluoromethyl)pyrimi-din-4-yl)-1H-imidazol-1-yl)benzyl)-3-methylpyrrolidin-3-ol] | ≤ 50
12 | Cc1nc(-c2nc(NC3CCN(S(C)(=O)=O)CC3)ncc2C(F)(F)F)cn1-c1ccc(N2CCN(C)C(=O)C2)cc1F [Example 108, 4-(3-Fluoro-4-(2-methyl-4-(2-((1-(methylsulfonyl)-piperidin-4-yl)-amino)-5-(trifluoro-methyl)pyrimidin-4-yl)-1H-imidazol-1-yl)phenyl)-1-methylpiperazin-2-one] | ≤ 50
13 | Cn1cnc(-c2nc(NC3CCN(S(C)(=O)=O)CC3)ncc2C(F)(F)F)c1Cl [Example 14, 4-(5-Chloro-1-methyl-1H-imidazol-4-yl)-N-(1-(methylsulfonyl)piperidin-4-yl)-5-(trifluoromethyl)pyrimidin-2-amine] | ≤ 50
14 | CS(=O)(=O)N1CCC(Nc2ncc(C(F)(F)F)c(-c3cn(-c4ccc(OC(F)F)cc4C#N)cn3)n2)CC1 [Example 126, 5-(Difluoromethoxy)-2-(4-(2-((1-(methylsulfonyl)piperidin-4-yl)amino)-5-(trifluoromethyl)pyrimidin-4-yl)-1H-imidazol-1-yl)benzonitrile] | ≤ 50

The remaining lines, values ahead:

Row | IC50 [nM] | SMILES
15 | ≤ 50 | CN(C)C(=O)c1ccc(-n2cnc(-c3nc(NC4CCN(S(C)(=O)=O)CC4)ncc3C(F)(F)F)c2)c(Cl)c1F [Example 136, 3-Chloro-2-fluoro-N,N-dimethyl-4-(4-(2-((1-(methylsulfonyl)piperidin-4-yl)amino)-5-(trifluoromethyl)pyrimidin-4-yl)-1H-imidazol-1-yl)benzamide]
16 | ≤ 50 | CN(C)Cc1ccc(-n2cnc(-c3nc(NC4CCN(S(C)(=O)=O)CC4)ncc3C(F)(F)F)c2)c(C(F)(F)F)c1 [Example 250, 4-(1-(4-((Dimethylamino)methyl)-2-(trifluoromethyl)phenyl)-1H-imidazol-4-yl)-N-(1-(methylsulfonyl)piperidin-4-yl)-5-(trifluoromethyl)pyrimidin-2-amine]
17 | ≤ 50 | CCN1CCN(Cc2ccc(-n3cnc(-c4nc(NC5CCN(S(C)(=O)=O)CC5)ncc4C(F)(F)F)c3)c(C#N)c2)CC1 [Example 339, 5-((4-Ethylpiperazin-1-yl)methyl)-2-(4-(2-((1-(methylsulfonyl)piperidin-4-yl)amino)-5-(trifluoromethyl)pyrimidin-4-yl)-1H-imidazol-1-yl)benzonitrile]
18 | ≤ 50 | CS(=O)(=O)N1CCC(Nc2ncc(C(F)(F)F)c(-c3cn(-c4cccc(C#N)c4Br)cn3)n2)CC1 [Example 63, 2-Bromo-3-(4-(2-((1-(methylsulfonyl)piperidin-4-yl)amino)-5-(trifluoromethyl)pyrimidin-4-yl)-1H-imidazol-1-yl)benzonitrile]
19 | ≤ 50 | CNC(=O)c1ccc(-n2cnc(-c3nc(NC4CCN(S(C)(=O)=O)CC4)ncc3C(F)(F)F)c2)c(C)n1 [Example 132, N,6-Dimethyl-5-(4-(2-((1-(methyl-sulfonyl)piperidin-4-yl)amino)-5-(trifluoromethyl)-pyrimidin-4-yl)-1H-imidazol-1-yl)picolinamide]
20 | ≤ 50 | CC(C)NCCc1cccc(-n2cnc(-c3nc(NC4CCN(S(C)(=O)=O)CC4)ncc3C(F)(F)F)c2)c1Cl [Example 465, 4-(1-(2-Chloro-3-(2-(isopropylamino)ethyl)phenyl)-1H-imidazol-4-yl)-N-(1-(methylsulfonyl)piperidin-4-yl)-5-(trifluoromethyl)pyrimidin-2-amine]
21 | ≤ 50 | Cc1nc(-c2nc(N[C@H]3CCN(S(C)(=O)=O)C[C@H]3F)ncc2C(F)(F)F)cn1-c1cccc(C#N)c1F [Example 305, 2-Fluoro-3-(4-(2-(((3R,4S)-3-fluoro-1-(methylsulfonyl)piperidin-4-yl)amino)-5-(trifluoromethyl)pyrimidin-4-yl)-2-methyl-1H-imidazol-1-yl)benzonitrile]
22 | ≤ 50 | CS(=O)(=O)N1CCC(Nc2ncc(C#N)c(-c3cn(CC(F)F)cn3)n2)CC1 [Example 26, 4-(1-(2,2-Difluoroethyl)-1H-imidazol-4-yl)-2-((1-(methylsulfonyl)piperidin-4-yl)amino)pyrimidine-5-carbonitrile]
23 | ≤ 50 | CS(=O)(=O)N1CCC(Nc2ncc(C(F)(F)F)c(-c3cn(-c4cccc(CN5CC[C@H](O)C5)c4Cl)cn3)n2)CC1 [Example 365, (S)-1-(2-Chloro-3-(4-(2-((1-(methylsulfonyl)piperidin-4-yl)amino)-5-(trifluoromethyl)pyrimi-din-4-yl)-1H-imidazol-1-yl)benzyl)pyrrolidin-3-ol]
24 | ≤ 50 | Cc1nc(-c2nc(NC3CCN(S(C)(=O)=O)CC3)ncc2C(F)(F)F)cn1-c1ccc(CN2CCC2)cc1F [Example 281, 4-(1-(4-(Azetidin-1-ylmethyl)-2-fluorophenyl)-2-methyl-1H-imidazol-4-yl)-N-(1-(methylsulfonyl)piperidin-4-yl)-5-(trifluoromethyl)pyrimidin-2-amine]
25 | ≤ 50 | Cc1nc(-c2nc(NC3CCN(S(C)(=O)=O)CC3)ncc2C(F)(F)F)cn1-c1ccc(C2CN(CCO)C2)cc1F [Example 420, 2-(3-(3-Fluoro-4-(2-methyl-4-(2-((1-(methylsulfonyl)piperidin-4-yl)amino)-5-(trifluoromethyl)pyrimidin-4-yl)-1H-imidazol-1-yl)phenyl)azetidin-1-yl)ethan-1-ol]
26 | ≤ 50 | C[C@@H]1CN(c2ccc(-n3cnc(-c4nc(NC5CCN(S(C)(=O)=O)CC5)ncc4C(F)(F)F)c3)c(Cl)c2)CCN1 [Example 141, (R)-4-(1-(2-Chloro-4-(3-methyl-piperazin-1-yl)-phenyl)-1H-imidazol-4-yl)-N-(1-(methyl-sulfonyl)piperidin-4-yl)-5-(trifluoro-methyl)pyrimidin-2-amine]
27 | ≤ 50 | Cc1c(-n2cnc(-c3nc(NC4CCN(S(C)(=O)=O)CC4)ncc3C(F)(F)F)c2)ccc2nccnc12 [Example 166, 4-(1-(5-Methylquinoxalin-6-yl)-1H-imidazol-4-yl)-N-(1-(methylsulfonyl)piperidin-4-yl)-5-(trifluoromethyl)pyrimidin-2-amine]
